Source: US11999758B2, “Inhibitors of the YAP/TAZ-TEAD interaction and their use in the treatment of cancer” (INVENTIVA, priority 2018, dated 2024)

Biological target: T1, YAP-TEAD interaction (Homo sapiens, UniProt P28347)
T1 construct: expressed in transfected cells; host or cells: HEK293 GripTite 293 MSR (Invitrogen R795-07)
Test: Cell-based TEAD-GAL4 transactivation assay (luciferase reporter)
Conditions: HEK293 cells transfected with TEAD1-Gal4, YAP mutant (S127A, S397A) and luciferase reporter, compounds 0.1 μM to 30 μM; for Emax: HEK293, 24 h, read-out: TEAD-GAL4 Transactivation activity Max Act
In short: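 HEK293 cells transiently transfected with Gal4-DBD–full-length human TEAD1, full-length YAP S127A/S397A (YAP/TEAD ratio 10) and a 5×GAL4-RE TK-luciferase reporter. Six hours later, compounds added semi-log from 0.1 to 30 μM (DMSO 0.5% control) for 24 h. Luciferase read; IC50 from 3-parameter fit.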

T1 sequence (P28347 whole entry): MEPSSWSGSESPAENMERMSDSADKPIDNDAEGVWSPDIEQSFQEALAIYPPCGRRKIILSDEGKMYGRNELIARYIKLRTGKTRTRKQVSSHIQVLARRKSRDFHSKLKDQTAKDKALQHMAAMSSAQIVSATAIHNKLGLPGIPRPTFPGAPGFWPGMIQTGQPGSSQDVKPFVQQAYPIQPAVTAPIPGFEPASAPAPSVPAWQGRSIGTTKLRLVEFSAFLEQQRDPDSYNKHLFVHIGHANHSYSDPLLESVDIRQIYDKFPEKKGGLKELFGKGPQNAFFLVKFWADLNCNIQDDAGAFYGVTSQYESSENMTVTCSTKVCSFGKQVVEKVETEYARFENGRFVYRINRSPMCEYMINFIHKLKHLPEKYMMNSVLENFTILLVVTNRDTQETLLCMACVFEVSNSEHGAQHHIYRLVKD

Row | Structure (SMILES) | IC50 (24 h) | TEAD-GAL4 Transactivation activity Max Act (24 h) | Emax
1 | Cc1csc2c(N3N=C(c4ccc5c(c4)COB5O)CCC3C)ncnc12 (single isomer, unassigned; (-)) [Ex120, (−) 4-[6-(1-hydroxy-3H-2,1-benzoxaborol-5-yl)-3-methyl-4,5-dihydro-3H-pyridazin-2-yl]-7-methyl-thieno[3,2-d]pyrimidine] | 500 nM | 84% | –
2 | CCN(/N=C/c1ccc(B(O)O)c(OC)c1)c1ncnc2c(OC)cccc12 [Ex 21, [4-[(E)-[ethyl-(8-methoxyquinazolin-4-yl)hydrazono]methyl]-2-methoxy-phenyl]boronic acid] | 1770 nM | – | 90%
3 | CC(C)CN(/N=C/c1ccc2c(c1)CCOB2O)C1=NS(=O)(=O)c2ccccc21 [Ex 46, N-[(E)-(1-hydroxy-3,4-dihydro-2,1-benzoxaborinin-6-yl)methyleneamino]-N-isobutyl-1,1-dioxo-1,2-benzothiazol-3-amine] | – | – | 72%
4 | CC(C)CN(/N=C/c1ccc2c(c1)COB2O)C1=NS(=O)(=O)c2ccc(F)cc21 [Ex 28, 5-fluoro-N-[(E)-(1-hydroxy-3H-2,1-benzoxaborol-5-yl)methyleneamino]-N-isobutyl-1,1-dioxo-1,2-benzothiazol-3-amine] | 2750 nM | – | 90%
5 | COc1cc(/C=N/N(CC(C)C)C2=NS(=O)(=O)c3ccc(OCCCO)cc32)ccc1B(O)O [Ex 12, [4-[(E)-[[5-(3-hydroxypropoxy)-1,1-dioxo-1,2-benzothiazol-3-yl]-isobutyl-hydrazono]methyl]-2-methoxy-phenyl]boronic acid] | 2970 nM | – | 98%
6 | Cc1csc2c(N(CC(C)C)/N=C/c3ccc4c(c3)COB4O)ncnc12 [Ex93, N-[(E)-(1-hydroxy-3H-2,1-benzoxaborol-5-yl)methyleneamino]-N-isobutyl-7-methyl-thieno[3,2-d]pyrimidin-4-amine] | 710 nM | – | 80%
7 | COc1cccc2c(N(C)/N=C/c3ccc4c(c3)COB4O)ncnc12 [Ex 33, N-[(E)-(1-hydroxy-3H-2,1-benzoxaborol-5-yl)methyleneamino]-8-methoxy-N-methyl-quinazolin-4-amine] | 4000 nM | – | 86%
8 | CSc1nc2ncnc(N3N=C(c4ccc5c(c4)COB5O)CCC3C)c2s1 (stereo not shown) [Ex123, 7-[6-(1-hydroxy-3H-2,1-benzoxaborol-5-yl)-3-methyl-4,5-dihydro-3H-pyridazin-2-yl]-2-methylsulfanyl-thiazolo[4,5-d]pyrimidine] | 200 nM | – | 96%
9 | CCN(/N=C/c1ccc2c(c1)COB2O)c1ncnc2ccsc12 [Ex 38, N-ethyl-N-[(E)-(1-hydroxy-3H-2,1-benzoxaborol-5-yl)methyleneamino]-thieno[3,2-d]pyrimidin-4-amine] | 510 nM | – | 81%
10 | COc1cc(C2=NN(c3ncnc4c3ccn4C)C(C)CC2)ccc1B(O)O (stereo not shown) [Ex73, [2-methoxy-4-[3-methyl-2-(7-methylpyrrolo[2,3-d]pyrimidin-4-yl)-4,5-dihydro-3H-pyridazin-6-yl]phenyl]boronic acid] | 2240 nM | – | 88%
11 | CN(/N=C/c1ccc2c(c1)COB2O)c1ncnc2c(C3CC3)csc12 [Ex103, 7-cyclopropyl-N-[(E)-(1-hydroxy-3H-2,1-benzoxaborol-5-yl)methyleneamino]-N-methyl-thieno[3,2-d]pyrimidin-4-amine] | 710 nM | – | 79%
12 | CCN(/N=C/c1ccc(B(O)O)c(OC)c1)c1ncnc2ccsc12 [Ex63, [4-[(E)-[ethyl(thieno[3,2-d]pyrimidin-4-yl)hydrazono]methyl]-2-methoxy-phenyl]boronic acid] | 690 nM | – | 63%
13 | CN(/N=C/c1ccc2c(c1)COB2O)c1ncnc2c(-c3ccccc3)csc12 [Ex102, N-[(E)-(1-hydroxy-3H-2,1-benzoxaborol-5-yl)methyleneamino]-N-methyl-7-phenyl-thieno[3,2-d]pyrimidin-4-amine] | 1990 nM | – | 87%
